Consider three compounds from patent publication US4656249A, “Peptides with relaxin activity” (Howard Florey Institute of Experimental Physiology and …, priority 1982, dated 1987).

Positions of bridges follow the written chain, without caps; N, C: chain ends. Residues, ends and D or L forms follow the SMILES beside them. Chains are numbered I, II in the order given. No end group written: not given here. A value given as a limit tells only on which side of the number the result lay.

Series [1] concerns rat uterine contractility. Briefly: rat uterine contractility assay (bioassay of recombined relaxin peptides). Format: cell-based. The following applies: for Recombination Yield (by BIOASSAY), actual combination yield based on the B chain: combination of A and B chains, yield measured by bioassay; for Recombination Yield (by BIOASSAY), recalculated on the basis of 100% yield for the recombined natural A22 and B28 chains: relative to recombined natural A22 + B28 = 100%. As for the experimental part:
The recombination of the relaxin peptide chains was monitored by HPLC and radioimmunoassay using an antibody raised to native porcine relaxin A22B29 and I125 Bolton-Hunter labelled A22B29 tracer (16). The biological activity of the recombined products was assessed using the rat uterine contractility assay (18).
The biological activity of the synthetic relaxin peptides was tested in the rat uterine contractility assay (18).

A short description of series [2]: solubility behaviour of relaxin B chain peptides in aqueous solution. It is filed as physicochemical. The settings on record: crude synthetic B chain. The source says: We have carried out research into the chemical synthesis of relaxin and its structural analogues as part of a systematic study of the structure-function relationships in the hormone molecule. The purified separate chains of pig relaxin have been obtained in approximately 10% yield (based on crude). The major impurities in the synthetic peptides appear to have arisen through side-reactions of the cysteine residues occurring during the HF cleavage step. In more recent syntheses improved yields have been obtained using the HF stable S-ethyl mercapto protecting group for cysteine. […] Column chromatography on Sephadex, cellulose, polyamide or polystyrene resins results in virtually a complete loss of peptide by irreversible absorption (16). These properties have made purification of synthetic relaxin B chain peptides and their coupling to A chain particularly difficult.
As shown by FIG. 3(c), the CD spectra indicate that shortening to 25 residues results in a change of from the beta-configuration to an unordered conformation. This conformational change is reflected in an enhanced solubility of the peptide in aqueous solution, a loss of the adsorptive behaviour and an improvement in the combination yield with the A chain. Using the above-described method the combination yield rises to 10%. […]

As for `CC[C@H](C)[C@@H]1NC(=O)[C@H](CC(=O)O)NC(=O)[C@H](CCCCN)NC(=O)[C@H](CCCNC(=N)N)NC(=O)[C@H]([C@@H](C)CC)NC(=O)[C@@H]2CSSC[C@H](NC(=O)[C@H](CCCCN)NC(=O)[C@H](CCC(=O)O)NC(=O)[C@H](CO)NC(=O)[C@@H](N)CC(C)C)C(=O)N[C@@H](CSSC[C@H](NC(=O)[C@H](C)NC(=O)[C@H](CCCCN)NC(=O)[C@@H](NC(=O)[C@H](Cc3ccccc3)NC(=O)[C@H](CC(=O)O)NC(=O)[C@H](CC(N)=O)NC(C)=O)[C@@H](C)CC)C(=O)NCC(=O)N[C@@H](CCCNC(=N)N)C(=O)N[C@@H](CCC(=O)O)C(=O)N[C@@H](CC(C)C)C(=O)N[C@@H](C(C)C)C(=O)N[C@@H](CCCNC(=N)N)C(=O)N[C@@H](CC(C)C)C(=O)N[C@@H](Cc3c[nH]c4ccccc34)C(=O)N[C@@H](C(C)C)C(=O)N[C@@H](CCC(=O)O)C(=O)N[C@@H]([C@@H](C)CC)C(=O)N[C@H](C(=O)NCC(N)=O)CSSC[C@@H](C(=O)O)NC(=O)[C@H](CC(C)C)NC(=O)[C@H](CCCNC(=N)N)NC(=O)[C@H](C)NC1=O)C(=O)N[C@@H](CCC(N)=O)C(=O)N[C@@H](C(C)C)C(=O)NCC(=O)N2` [SA (4-22) SB[N--acetyl](4-23)NH2] (I: Ac-NDFIKACGRELVRLWVEICG-NH2 / II: H-LSEKCCQVGCIRKDIARLC-OH; disulfide I:7-II:6, I:19-II:19, II:5-II:10), in series [1], the “Recombination Yield (by BIOASSAY), actual combination yield based on the B chain” value is 1.3%; the “Recombination Yield (by BIOASSAY), recalculated on the basis of 100% yield for the recombined natural A22 and B28 chains” value is reported as 5%.

For “B(1-29): synthetic porcine relaxin B chain of 29 residues (B chain of CMa')”, the “pH at which the peptide is soluble” value in series [2] is over 5.5.

Turning to “I: RMTLSEKCCQVGCIRKDIARLC / II: Ac-NDFIKACGRELVRLWVEICG-NH2 (disulfide I:8-I:13, I:9-II:7, I:22-II:19) [SA (1-22) SB[N--acetyl](4-23)NH2]”, in series [1], the “Recombination Yield (by BIOASSAY), actual combination yield based on the B chain” value is recorded as 2.4%; the “Recombination Yield (by BIOASSAY), recalculated on the basis of 100% yield for the recombined natural A22 and B28 chains” value is listed as 10%.
